| SMILES | melting point |
| --- | --- |
| COc1nc(OC)c(C=O)c(N(C)C)n1 | 150 °C |
| CC(C)(C)C(=O)Nc1c(F)cc(F)cc1C#Cc1ccc(SC2CCOCC2)cc1 | 148 to 149 °C |
| COc1ccc(C(=O)Nc2ccc(F)c(F)c2)cc1Nc1cccc(C(F)(F)F)c1 | 166 to 169 °C |
| CC(C)CNC(=O)C(C)(C)c1ccc(-c2cccn2C)cc1 | 59 to 60 °C |
| Cc1cccc(C)c1NC(=O)N1CCCN(C(C)C)C1 | 138 to 139 °C |
| O=C(C=Cc1cncnc1)CCCCc1ccc2c(n1)NCCC2 | 101 to 102 °C |
| COc1ccc(N2C(=O)[C@@H](N3C(=O)c4ccccc4C3=O)[C@H]2/C=C/c2ccccc2)cc1 (relative stereo) | 202 to 203 °C |
| Nc1ncc(Sc2ccc([N+](=O)[O-])cc2)s1 | 162 to 164 °C |
| CCCc1ccc2nc(C(F)(F)F)c(S(=O)(=O)N=CN(C)C)n2n1 | 219 to 220 °C |
| ONCc1ccccc1Cl | 71 to 73 °C |
| CCOC(=O)CN(c1ccc(Cl)cc1)[C@H]1c2cc(C#N)ccc2OC(C)(C)[C@@H]1O | 172 °C |
| COc1ccc2c3c(c(=O)oc2c1)CN(Cc1ccccc1)CC3 | 118 to 120 °C |
| C=CCOn1c(=O)[nH]c2cc(F)c(F)cc2c1=O | 220 to 221 °C |
| Cn1c(C(F)(F)F)cc(C#N)c1-c1ccc2ccccc2c1 | 134 °C |
| O=C(O)c1ccc(NCCCCCCCc2ccccc2)cc1 | 123 to 126 °C |
| CCn1ncc2c(O)c(CCc3ccccc3)c(C)nc21 | 251 to 256 °C |
| COc1ccc(C(=O)N2CCC[C@H]2C(OC)OC)cc1 | 51 to 52.5 °C |
| O=c1[nH]c2cscc2c(=O)n1CCN1CCN(c2ccc(Cl)cc2)CC1 | > 250 °C |
| N#Cc1ccc(C(=O)Nc2cccc(C(=O)O)c2)cc1 | 267 °C |
| COc1cc(-c2cnc3[nH]cc(C(=O)C(=O)N(C)C)c3n2)cc(OC)c1OC | 227 to 228 °C |
| COc1ccccc1CC(=O)Nc1cc(Cl)c(Cl)cc1[N+](=O)[O-] | 123 to 125 °C |

| SMILES | melting point |
| --- | --- |
| CC(CC(=O)O)CC(=O)Nc1cccc(-c2ccnc3c(C(=O)c4cccs4)cnn23)c1 (stereo unspecified) | 135 to 136 °C |
| COC(=O)CCCS(=O)(=O)c1ccc(C)cc1 | 23 °C |
| CCCc1c(OCC(O)CSc2nc3ccc(C(=O)O)cc3[nH]2)ccc(C(C)=O)c1O (stereo unspecified) | 133 to 135 °C |
| COC(=O)Cc1nsc(NC(=O)c2ccccc2)n1 | 143 °C |
| COc1ccc2[nH]c(C(F)(F)F)cc2c1 | 60 °C |
| Nc1nc2cc(Cl)c(Cl)c(Cl)c2[nH]1 | 255 to 258 °C |
| C#Cc1ccc(-c2ccccc2F)cc1 | 28.5 to 31 °C |
| CCOC(=O)c1ncn2c1[C@@H]1CCN1C(=O)c1c-2ccc(F)c1F | 234 to 236 °C |
| CC1=NN=C(c2ccc([N+](=O)[O-])cc2)c2cc3c(cc2C1)OCCOC3 | 204 to 206 °C |
| CC1=C(C(=O)CS(=O)(=O)NC(C)C)[C@@H](c2cccc([N+](=O)[O-])c2)C(C(=O)O[C@@H](C)c2ccccc2)=C(C)N1 | 128 to 131 °C |
| Cc1nn(-c2c(Cl)cc(C(F)(F)F)cc2Cl)c(NCC(=O)O)c1SC(F)(F)F | 168 to 170 °C |
| COC[C@H]1CN(c2ccc([C@H]3CC[C@H](OCC#N)CC3)cc2)C(=O)O1 | 43 to 45 °C |
| COc1ccc(S(=O)(=O)Nc2cccc(C)c2N)cc1 | 177 to 178 °C |
| CN(C)CCc1c(CC(C)(C)[N+](=O)[O-])c2ccccc2n1C | 87 to 90 °C |
| COC1=C(OC)C(=O)C(CCCCCCCCCCO)=C(C)C1=O | 52 °C |
| COC(=O)CCc1ccc(Oc2ccc(-c3ccc(C#N)cc3)nn2)cc1 | 164 to 167 °C |
| Nc1nc(O)c2c(n1)NCC(CCc1nc(C(=O)N[C@@H](CCC(=O)O)C(=O)O)c[nH]1)C2 (stereo partly specified) | > 260 °C |
| CC(C)(C)c1ccc(CN2CCN(c3ccccc3)CC2)o1 | 48 °C |
| N=C(N)NCCCCOc1ccc2c(c1)NC(=O)C(CCC(=O)O)C2 (stereo unspecified) | 176 to 177 °C |
| S=C(NCCc1ccccc1Cl)Nc1ccccn1 | 116 to 122 °C |
